Molecular target: T1, Nuclear factor erythroid 2-related factor 2 (Homo sapiens, UniProt Q16236)
T1 sequence (Q16236 whole entry): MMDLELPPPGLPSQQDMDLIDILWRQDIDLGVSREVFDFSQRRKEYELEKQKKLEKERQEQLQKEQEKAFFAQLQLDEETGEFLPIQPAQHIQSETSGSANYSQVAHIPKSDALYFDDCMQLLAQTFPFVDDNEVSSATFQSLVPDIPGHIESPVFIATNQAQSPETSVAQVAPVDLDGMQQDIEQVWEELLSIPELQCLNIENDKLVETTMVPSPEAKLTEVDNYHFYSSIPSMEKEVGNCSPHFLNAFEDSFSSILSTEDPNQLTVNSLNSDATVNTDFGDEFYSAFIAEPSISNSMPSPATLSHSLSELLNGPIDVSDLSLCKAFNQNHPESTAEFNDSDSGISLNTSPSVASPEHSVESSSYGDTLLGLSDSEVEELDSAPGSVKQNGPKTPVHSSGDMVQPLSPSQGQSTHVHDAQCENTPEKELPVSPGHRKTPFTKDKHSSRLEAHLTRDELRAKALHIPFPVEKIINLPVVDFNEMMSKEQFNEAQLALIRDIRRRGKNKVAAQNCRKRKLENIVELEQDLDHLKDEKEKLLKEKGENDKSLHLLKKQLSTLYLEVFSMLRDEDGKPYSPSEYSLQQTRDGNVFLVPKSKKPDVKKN
Experiment: Activation of Nrf2 (unknown origin) expressed in human HepG2 cells after 5 hrs by ARE-driven luciferase reporter gene assay

Row | Structure (SMILES) | EC50 [µM]
1 | COc1cccc(/C=C/c2ccccc2)c1OC | 4.7
2 | COc1cccc(/C=C/c2cccc(F)c2)c1OC | 1.9
3 | Fc1cccc(/C=C/c2ccc(F)cc2F)c1 | 0.45
4 | Fc1ccc(/C=C/c2ccccc2F)cc1F | > 15
5 | COc1ccc(/C=C/c2cccc([N+](=O)[O-])c2)cc1 | 3.3
6 | Cc1ccc(/C=C/c2cccc(C(F)(F)F)c2)cc1 | 1.5
7 | Fc1cccc(F)c1/C=C/c1ccccc1 | 6.9
8 | COc1ccc(/C=C/c2ccccc2Cl)cc1 [US8980954, 6j] | 3.1
9 | Fc1ccccc1/C=C/c1ccccc1F | 4.3
10 | COc1cccc(/C=C/c2ccc(C(F)(F)F)cc2)c1OC | 2.2
11 | Fc1ccc(/C=C/c2ccccc2)cc1 | 12.4
12 | COc1ccc(/C=C/c2ccc(F)c(F)c2)cc1 | > 15
13 | COc1ccc(/C=C/c2cccc(F)c2)cc1OC [4-(3-fluorostyryl)-1,2-dimethoxybenzene] | 9.5
14 | Fc1ccccc1/C=C/c1c(F)cccc1F | 1.4
15 | Fc1ccc(/C=C/c2cccc(F)c2)cc1 | 0.65
16 | Fc1cccc(/C=C/c2ccccc2F)c1 | > 15
17 | Oc1ccc(/C=C/c2ccccc2F)cc1 | 11.4
18 | COc1cccc(/C=C/c2ccc(F)cc2)c1 | 6
19 | Fc1ccc(/C=C/c2ccc(F)c(F)c2)cc1 | > 15

Row | Structure (SMILES) | EC50 [µM]
20 | Fc1ccc(/C=C/c2cc(F)ccc2F)cc1 | 2.9
21 | COc1cccc(/C=C/c2ccc(C)cc2)c1OC | 1.1
22 | Cc1ccc(/C=C/c2cccc([N+](=O)[O-])c2)cc1 | 3.7
23 | COc1ccc(/C=C/c2cccc(O)c2)cc1 | > 15
24 | Fc1cccc(/C=C/c2ccccc2)c1 | 3.1
25 | COc1cccc(/C=C/c2ccc(C(C)C)cc2)c1OC | 2.7
26 | Cc1ccc(/C=C/c2cccc(F)c2)cc1 | 0.8
27 | Fc1cccc(/C=C/c2cccc(F)c2)c1 | 1
28 | Fc1ccc(F)c(/C=C/c2ccccc2F)c1 | 5.9
29 | COc1ccc(/C=C/c2ccc(OC)cc2OC)cc1 [(E)2'',4,4''-Trimethoxystilbene] | 4.6
30 | Fc1ccccc1/C=C/c1ccccc1 | 0.7
31 | COc1ccc(OC)c(/C=C/c2ccc(OC)cc2OC)c1 | 0.8
32 | COc1cccc(/C=C/c2ccc(F)cc2)c1OC | 2.9
33 | Fc1ccc(/C=C/c2ccccc2F)c(F)c1 | 9.6
34 | Cc1ccc(/C=C/c2ccc(F)c(F)c2)cc1 | 2.6
35 | O=[N+]([O-])c1cccc(/C=C/c2ccccc2)c1 | 3
36 | Fc1ccc(/C=C/c2ccc(F)cc2F)cc1 | 0.9
37 | COc1ccc(/C=C/c2ccc(O)c(OC)c2)cc1 | 3.7
38 | COc1ccc(/C=C/c2cc(F)ccc2F)cc1 | 3.2

Row | Structure (SMILES) | EC50 [µM]
39 | Fc1cccc(/C=C/c2ccc(F)c(F)c2)c1 | 5
40 | COc1ccc(/C=C/c2cccc(F)c2)cc1 [US8980954, 6n] | 8.9
41 | COc1cccc(/C=C/c2cccc(F)c2)c1 | 2.3
42 | Fc1cccc(/C=C/c2cc(F)ccc2F)c1 | 0.3
43 | COc1ccc(/C=C/c2ccc(F)cc2)cc1OC | 2.6
44 | COc1ccccc1/C=C/c1ccccc1F | 3.1
45 | COc1ccccc1/C=C/c1ccccc1 | 4.4
46 | COc1ccc(OC)c(/C=C/c2ccc(F)cc2)c1 | 5.1
47 | Cc1ccc(/C=C/c2ccc(F)cc2)cc1 | 1.3
48 | COc1cccc(/C=C/c2ccccc2OC)c1 | 4.4
49 | Cc1ccc(/C=C/c2ccc(F)cc2F)cc1 | 2
50 | Cc1ccc(/C=C/c2ccccc2F)cc1 | 1.4
51 | Fc1ccc(/C=C/c2ccccc2F)cc1 | 3.6
52 | COc1cccc(/C=C/c2cc(OC)ccc2OC)c1 | > 15
53 | Oc1ccc(/C=C/c2cc(O)cc(O)c2)cc1 [5-[(E)-2-(4-hydroxyphenyl)ethenyl]benzene-1,3-diol] | 5.4
54 | COc1ccc(/C=C/c2ccc(F)cc2)cc1 | 4.2
55 | COc1ccc(/C=C/c2ccccc2F)cc1 [US8980954, 6p] | 5.4
56 | COc1cccc(/C=C/c2ccccc2F)c1 | 3.8
57 | Fc1ccccc1/C=C/c1ccc(Cl)cc1 | 1.6
